We go through seven compounds from US20150164117A1, “ENCAPSULATION OF FRAGRANCE AND/OR FLAVORS IN SILK FIBROIN BIOMATERIALS” (Tufts University, priority 2012, published 2015).

Several values for one entry are separate records, joined by “and”; a condition that tells them apart may be missing. Identical values can stand only once.

By Log P is commonly meant the decadic logarithm of the partition coefficient of the neutral form, usually between octanol and water.

Data set [1] in a line: Size of fragrance-loaded silk microparticles from silk/fragrance emulsions. Format: physicochemical. Particulars: n = 3. The method, then:
To determine the effectiveness of encapsulation of a silk based oil-water-oil system, fragrance oils targeted for encapsulation were added to the silk/polyvinyl alcohol (PVA) aqueous phase at ratios ranging from 1:2 up to 1:8 (v:v). The ratio of silk to fragrance oils was altered prior to sonication and addition of secondary oil phase. […] Formation of fragrance-loaded silk microparticles was more challenging at ˜1% silk concentrations for any of the fragrances tested.
The water phase was created by combining 5:1 (v:v) silk fibroin solution with 3% (w/v) PVA solution. The oil fragrance targeted for encapsulation was manually added to an aqueous phase. The stable primary O/W emulsion was sonicated (20% for 20 seconds) to disperse the oil, reduce the diameter of the oil particles and initiate β-sheet formation. The vegetable oil (sunflower oil) was added as the secondary oil phase at a 10:1 volumetric ratio with respect to the primary emulsion. The O/W/O emulsion was vortexed at high speed for 30 seconds and incubated overnight at room temperature. The microparticles were collected via centrifugation, and excess oil was removed by two successive ethanol rinses. The isolated particles were resuspended in deionized water and stored at room temperature.

The conditions of data set [2]: cited from earlier work.
The nature of data set [3]: Interfacial tension between silk solution and limonene (pendant drop). The format is physicochemical. The method, then: To elucidate the interaction of silk and the fragrance oils the interfacial tension was measured. Interfacial tension between the two liquids dictates emulsion stability and ultimately microparticle size and distribution (Terjung et al., 2012). Various silk concentrations were assessed along with three silk molecular weight ranges: low, medium and high based on degumming times of ˜60, ˜30 and ˜10 minutes respectively. […] Interfacial tension drops when the molecular weight of the silk protein is decreased. This is in agreement with other studies that show a dependence of surface tension on molecular weight and molecular chain branching (Dettre et al., 1966 and Legrand et al., 1969). […] The highest interfacial tension was 8.16+/−0.57 mN/m for the […] molecular weight silk at a concentration of about 2%. […] Hung et al. discussed that an increase in the concentration of short chain molecules can correspond to a decrease in interfacial tension in an aqueous system (Ly et al. 2004). This is a behavior indicative of emulsifiers, which traditionally serve to stabilize mixtures and generally show better stability with increase in concentration (Djakovic et al., 1987).
Interfacial tension measurements were made using a Ramé-Hart Goniometer (Model 200) running DROPimage Standard analysis software. A silk solution drop of known volume was suspended on the tip of a needle which was submerged in the fragrant oil creating a pendent drop. The DROPimage software used the pendant drop image as well as known density values to calculate interfacial tension at the liquid-liquid interface.

The format of data set [4] is physicochemical. The protocol:
To determine fragrance content, thermogravimetric analysis (TGA) was performed on fragrance-loaded sill microparticles. Samples were allowed to air dry for 24 hours prior to analysis. FIGS. 18D-18F depict the results of the TGA for encapsulation of three fragrances, while FIGS. 18A-18C show the individual emulsion components. A small increase in temperature causes the ethanol to volatilize rapidly, while the silk and vegetable oil only begin to degrade at temperatures of 220° C. and 300° C. respectively. The fragrances used are highly volatile and were expected to vaporize well before the silk and oil components. As shown in FIG. 18D-18F, it is difficult to distinguish the fragrance component from the ethanol, they are both released from the microparticles in the same temperature range. To estimate the fragrance content, the change in rate of weight loss during heating from 23° C. to 100° C. was taken as the transition between primarily ethanol evaporation prior to change in rate and fragrances loss subsequently.
To address concerns with release between ethanol and the encapsulated fragrance, a 250 minute incubation at 50° C. was employed during a second set of TGA runs. This incubation was added to ensure that any free surface fragrance and ethanol would vaporize prior to further temperature ramping. After incubation the silk particles contain fragrance only if it was entrapped within the silk.
(§1) Thermogravimetric analysis (TGA) (TA Instruments Q500) was used to measure weight changes in the microparticles. For rapid estimates of microparticle composition the TGA was heated from 23° C. to 500° C. at a rate of ˜20° C./min. To distinguish surface fragrance from encapsulated fragrance, samples were run with a ˜250 minute incubation at 50° C. prior to continued heating. For analysis of fragrance protection the TGA was held isothermal for 30 minutes every 20° C. interval from 70° C. up to 210° C. For each segment weight loss was monitored and attributed to fragrance release from the microparticles.

A short description of data set [5]: Limonene release in water from limonene/silk/PVA microparticles (TGA after soaking). The format is physicochemical. The method, then:
FIGS. 22A-22B are data graphs showing retention/release of fragrance from the fragrance-encapsulated silk microparticles under a specified condition. The microparticles were then diluted in water and passed through 120 μm filter. The isolated microparticles were then incubated in water to determine fragrance release over time. FIG. 22A is a data graph of TGA (performed with ˜250 min 50° C. incubation, followed by ramping to 400° C. at 5° C./min) showing weight loss of fragrance-encapsulated silk microparticles over a period of time when subjected to various temperatures. […] These silk microparticles show retention across 14 days without any additional coatings. FIG. 22B is a bar graph showing percents of encapsulated limonene release in water from O/W/O PVA silk microparticles without coatings. Using the “no release” as the reference point for fragrance content, there was about 2-3% difference in mass for fragrance-encapsulated silk microparticles soaked in water. Mass loss corresponds to fragrance loss during soaking in an aqueous environment, with an increase of fragrance release after longer exposure to the aqueous environment.

Data set [6] can be described thus: TGA with stepwise isothermal segments, fragrance protection by PEO/silk coatings. Format: physicochemical. Particulars: limonene containing microparticles.
Source text: It has been previously discussed that hydrated barriers can alter the rate of compound release from aqueous silk, hyaluronic acid, gelatin, and alginate constructs (Guziewicz et al., 2011; Elia et al., 2011; Omi et al., 1991; Sriamornsak et al., 2007; Chan et al., 2007; and Li et al., 2006). In combination with the hydrophobic nature of the fragrances, a protective barrier designed to maintain moisture can be desired. The coating scheme is illustrated in FIG. 27A. Each coating comprises a polyethylene oxide (PEO) layer surrounded by a silk fibroin film. Particles were coated with one, three or five coatings and a modified TGA was performed to assess fragrance retention. […] FIGS. 27B-27D depict scanning electron micrographs of these particles.
as §1

Data set [7] in a line: Dissolution of untreated loaded silk films and release of load in aqueous medium. The format is physicochemical. The method, then: Rapid dissolution of films loaded with a dye and release of the dye from the films occur when the films are immersed in ˜37° C. buffer (FIG. 10). Dissolvable silk films loaded with an odor-releasing substance and/or flavoring substance (e.g., ˜0.5, 0.25 or 0.125 mg of adenosine per 0.2 mm^2 film) released the majority of the drug load (approx. 80%) within 15 minutes of exposure to 37° C. phosphate buffered saline (PBS) (Data not shown).

[8] abbreviates: silk concentration ~3%, fragrance:silk ~1:2.
The mark [9] stands for this setting: silk concentration ~5%, fragrance:silk ~1:2.

Turning to `CCCC(C)C(=O)OCC` (centres unmarked) [Applinate], the Microparticle size in data set [1] (silk concentration 3%, fragrance:silk ~1:4) was 9.53 ± 2.47 μm; in data set [1] (silk concentration 3%, fragrance:silk ~1:8), 9.22 ± 2.79 μm; in data set [1] (silk concentration 5%, fragrance:silk ~1:4), 9.64 ± 3.11 μm; in data set [1] (silk concentration 5%, fragrance:silk ~1:8), 9.61 ± 2.40 μm; in data set [1] (setting [8]) it was 8.49 ± 2.53 μm; in data set [1] (silk concentration ~3%, fragrance:silk ~1:2, listed as applinate) it was 8.49+/−2.53 μm and 8.49 ± 2.53 μm. Further, the Microparticle size is 8.11 ± 1.96 μm in data set [1] (setting [9]); 8.11+/−1.76 μm and 8.11 ± 1.96 μm in data set [1] (silk concentration ~5%, fragrance:silk ~1:2, listed as applinate). In addition, the “Log P” value in data set [2] is on record as 2.76.
Regarding `C/C=C/C(=O)C1C(C)C=CCC1(C)C` (centres unmarked) [Delta-Damascone], the values for the Microparticle size in data set [1] (setting [8]) and in data set [1] (setting [9]) were 7.60 ± 2.71 μm and 7.84 ± 1.49 μm, respectively. Also, the lipophilicity (Log P) in data set [2] is given as 3.91.
`C=CC(C)CCCC(C)(C)O` (centres unmarked) [Dihydromyrcenol] yielded a Microparticle size in data set [1] (setting [9]) of 7.71 ± 1.82 μm. The “Log P” value in data set [2] was 3.25.
With `C=C(C)C1CC=C(C)CC1` (centres unmarked) [Limonene], the Microparticle size is on record as 9.57 ± 2.70 μm in data set [1] (setting [8]); 9.57+/−2.70 μm in data set [1] (silk concentration ~3%, fragrance:silk ~1:2, listed as limonene); 12.40 ± 4.76 μm in data set [1] (setting [9]); 12.40+/−4.96 μm in data set [1] (silk concentration ~5%, fragrance:silk ~1:2, listed as limonene). For the same compound, the Interfacial tension in data set [3] (between silk and limonene, lowest molecular weight and highest silk concentrations) is on record as 4.59+/−0.32 mN/m; in data set [3] (between silk and limonene, lowest molecular weight silk at about 2% (highest value found)), 8.16+/−0.57 mN/m; in data set [3] (limonene / 6% silk at 3.1 uM NaCl), 1.82+/−0.39 mN/m; in data set [3] (limonene / unaltered 6% silk (30 minute degummed), n=3) it was 4.78+/−0.28 mN/m. Also, in data set [4] (O/W/O microparticles, TGA with 250 minute incubation at 50° C.), the “Loss of limonene during incubation period” value is given as “majority of the limonene is lost”. Further, the “Limonene fraction of microparticles” value in data set [4] (preformed PVA/silk microparticles soaked about 1 or about 24 hours in limonene oil, TGA) is listed as 85-90%. Moreover, the “Difference in mass versus no release (fragrance loss on soaking in water)” value in data set [5] (uncoated limonene/silk/PVA O/W/O microparticles soaked in water, TGA) is 2-3%. For the same compound, the “Retention in water without additional coatings” value in data set [5] (uncoated limonene/silk/PVA microparticles incubated in water) is reported as 14 days. Moreover, the “Weight Loss (%), Total Loss” value in data set [6] (1 PEO/silk coating, 70-210° C. segments) is on record as 8.2%; in data set [6] (3 PEO/silk coatings, 70-210° C. segments) it was 1.2%. The “Weight Loss (%)” value in data set [6] (1 PEO/silk coating, isotherm segment 70° C.) was determined as 0.179%; in data set [6] (1 PEO/silk coating, isotherm segment 90° C.) it was 1.024%; in data set [6] (1 PEO/silk coating, isotherm segment 110° C.), 0.154%; in data set [6] (1 PEO/silk coating, isotherm segment 130° C.) it was 0.342%; in data set [6] (1 PEO/silk coating, isotherm segment 150° C.), 0.323%; in data set [6] (1 PEO/silk coating, isotherm segment 170° C.), 0.367%. For the same compound, the “Weight Loss (%)” value is 2.465% in data set [6] (1 PEO/silk coating, isotherm segment 190° C.); 3.3201% in data set [6] (1 PEO/silk coating, isotherm segment 210° C.); 0.035% in data set [6] (3 PEO/silk coatings, isotherm segment 70° C.); −0.019% in data set [6] (3 PEO/silk coatings, isotherm segment 90° C.); 0.091% in data set [6] (3 PEO/silk coatings, isotherm segment 110° C.); −0.102% in data set [6] (3 PEO/silk coatings, isotherm segment 130° C.). The “Weight Loss (%)” value in data set [6] (3 PEO/silk coatings, isotherm segment 150° C.) was found to be 0.056%; in data set [6] (3 PEO/silk coatings, isotherm segment 170° C.) it was 0.288%; in data set [6] (3 PEO/silk coatings, isotherm segment 190° C.), 0.328%; in data set [6] (3 PEO/silk coatings, isotherm segment 210° C.) it was 0.478%; in data set [6] (5 PEO/silk coatings, isotherm segment 70° C.), 1.535%; in data set [6] (5 PEO/silk coatings, isotherm segment 90° C.) it was 3.531%. Further, the “Weight Loss (%)” value in data set [6] (5 PEO/silk coatings, isotherm segment 110° C.) is given as 3.579%; in data set [6] (5 PEO/silk coatings, isotherm segment 130° C.), 2.391%; in data set [6] (5 PEO/silk coatings, isotherm segment 150° C.) it was 1.549%; in data set [6] (5 PEO/silk coatings, isotherm segment 170° C.) it was 1.314%; in data set [6] (5 PEO/silk coatings, isotherm segment 190° C.), 1.278%; in data set [6] (5 PEO/silk coatings, isotherm segment 210° C.), 1.615%. Moreover, the “Weight Loss (%), Total Loss (fragrance retention)” value in data set [6] (5 PEO/silk coatings, 70-210° C. segments) amounted to 16.8%.
Regarding `Nc1ncnc2c1ncn2[C@@H]1O[C@H](CO)[C@@H](O)[C@H]1O` [adenosine], the Drug load released entry in data set [7] (dissolvable silk films, ~0.5, 0.25 or 0.125 mg per 0.2 mm^2 film, within 15 minutes in 37° C. PBS, data not shown) is recorded as “approx. 80%”.
Regarding `O=C1/C(=C2\Nc3ccc(S(=O)(=O)[O-])cc3C2=O)Nc2ccc(S(=O)(=O)[O-])cc21.[Na+].[Na+]` [indigo carmine], in data set [7] (untreated dye-loaded silk film immersed in ~37° C. water), the “Time to full dissolution” value is listed as “about 30 minutes”.
In the case of vegetable oil, the “Temperature at which degradation begins” value in data set [4] worked out at 300 °C.
